pIC50: −log10 of the molar value.
Tested on: 648629-189-R-J1-PDC spheroids with HUVEC/MSC, viability
Test: Anticancer human tumor 648629-189-R-J1-PDC patient-derived bladder carcinoma cell line growth inhibition [PI3K]
Conditions: for pIC50: curve of first compound; for viability, T/C: stronger effect = lower value
In short: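 Multi-cell spheroids combine tumor cells with HUVEC and human MSCs, treated with targeted agents alone or with inavolisib, alpelisib, duvelisib or copanlisib. Concentrations fall in half-log steps from at or near clinical Cmax, or from 10 microM where Cmax is unknown; viability read-out.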

[1] = second compound 0.00316 µM, first compound 0.0316 µM
[2] = second compound 0.00316 µM, first compound 0.1 µM
[3] = second compound 0.00316 µM, first compound 0.316 µM
[4] = second compound 0.00316 µM, first compound 1 µM
[5] = second compound 0.00316 µM, first compound 3.16 µM
[6] = second compound 0.00316 µM, first compound 10 µM
[7] = second compound 0.01 µM, first compound 0.0316 µM
[8] = second compound 0.01 µM, first compound 0.1 µM
[9] = second compound 0.01 µM, first compound 0.316 µM
[10] = second compound 0.01 µM, first compound 1 µM
[11] = second compound 0.01 µM, first compound 3.16 µM
[12] = second compound 0.01 µM, first compound 10 µM
[13] = second compound 0.0316 µM, first compound 0.0316 µM
[14] = second compound 0.0316 µM, first compound 0.1 µM
[15] = second compound 0.0316 µM, first compound 0.316 µM
[16] = second compound 0.0316 µM, first compound 1 µM
[17] = second compound 0.0316 µM, first compound 3.16 µM
[18] = second compound 0.0316 µM, first compound 10 µM
[19] = second compound 0.1 µM, first compound 0.0316 µM
[20] = second compound 0.1 µM, first compound 0.1 µM
[21] = second compound 0.1 µM, first compound 0.316 µM
[22] = second compound 0.1 µM, first compound 1 µM
[23] = second compound 0.1 µM, first compound 3.16 µM
[24] = second compound 0.1 µM, first compound 10 µM
[25] = second compound 0.316 µM, first compound 0.0316 µM
[26] = second compound 0.316 µM, first compound 0.1 µM
[27] = second compound 0.316 µM, first compound 0.316 µM
[28] = second compound 0.316 µM, first compound 1 µM
[29] = second compound 0.316 µM, first compound 3.16 µM
[30] = second compound 0.316 µM, first compound 10 µM
[31] = second compound 1 µM, first compound 0.0316 µM
[32] = second compound 1 µM, first compound 0.1 µM
[33] = second compound 1 µM, first compound 0.316 µM
[34] = second compound 1 µM, first compound 1 µM
[35] = second compound 1 µM, first compound 3.16 µM
[36] = second compound 1 µM, first compound 10 µM
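Further: spheroids exposed to agents for seven days before reading.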
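Wherever viability, T/C is given: percent of vehicle control luminescence where 100% = DMSO treated spheroids.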

CC(C)NCC(C(=O)N1CCN(c2ncnc3c2C(C)CC3O)CC1)c1ccc(Cl)cc1 (stereo unspecified) + COc1c(OCCCN2CCOCC2)ccc2c3n(c(=NC(=O)c4cnc(N)nc4)nc12)CCN3
pIC50 (second compound 0.00316 µM): 6.05 | pIC50 (second compound 0.01 µM): 5.99 | pIC50 (second compound 0.0316 µM): 6.16 | pIC50 (second compound 0.1 µM): 6.84 | pIC50 (second compound 0.316 µM): > 7.50 | pIC50 (second compound 1 µM): > 7.50 | viability, T/C [1]: 90.2% | viability, T/C [2]: 91.7% | viability, T/C [3]: 79% | viability, T/C [4]: 45.4% | viability, T/C [5]: 26.1% | viability, T/C [6]: 14.3% | viability, T/C [7]: 102% | viability, T/C [8]: 73.5% | viability, T/C [9]: 75.1% | viability, T/C [10]: 54% | viability, T/C [11]: 26.2% | viability, T/C [12]: 13.3% | viability, T/C [13]: 77.7% | viability, T/C [14]: 77.6% | viability, T/C [15]: 67.1% | viability, T/C [16]: 40.5% | viability, T/C [17]: 24.6% | viability, T/C [18]: 11.6% | viability, T/C [19]: 60.1% | viability, T/C [20]: 51.3% | viability, T/C [21]: 45% | viability, T/C [22]: 27% | viability, T/C [23]: 16.9% | viability, T/C [24]: 8.23% | viability, T/C [25]: 19.3% | viability, T/C [26]: 18.4% | viability, T/C [27]: 14.6% | viability, T/C [28]: 12% | viability, T/C [29]: 7.28% | viability, T/C [30]: 2.74% | viability, T/C [31]: 2.91% | viability, T/C [32]: 2.63% | viability, T/C [33]: 3.85% | viability, T/C [34]: 3% | viability, T/C [35]: 2.11% | viability, T/C [36]: 0.84%

CCN1CCN(Cc2ccc(Nc3ncc(F)c(-c4cc(F)c5nc(C)n(C(C)C)c5c4)n3)nc2)CC1 + CC(Nc1ncnc2nc[nH]c12)c1cc2cccc(Cl)c2c(=O)n1-c1ccccc1
pIC50 (second compound 0.0316 µM): < 6.00 | pIC50 (second compound 0.1 µM): < 6.00 | pIC50 (second compound 0.316 µM): < 6.00 | pIC50 (second compound 1 µM): < 6.00 | pIC50 (second compound 3.16 µM): < 6.00 | pIC50 (second compound 10 µM): < 6.00 | viability, T/C (second compound 0.0316 µM, first compound 0.00316 µM): 90.1% | viability, T/C (second compound 0.0316 µM, first compound 0.01 µM): 96.2% | viability, T/C [13]: 105% | viability, T/C [14]: 111% | viability, T/C [15]: 113% | viability, T/C [16]: 122% | viability, T/C (second compound 0.1 µM, first compound 0.00316 µM): 107% | viability, T/C (second compound 0.1 µM, first compound 0.01 µM): 99.4% | viability, T/C [19]: 103% | viability, T/C [20]: 101% | viability, T/C [21]: 101% | viability, T/C [22]: 135% | viability, T/C (second compound 0.316 µM, first compound 0.00316 µM): 105% | viability, T/C (second compound 0.316 µM, first compound 0.01 µM): 96.3% | viability, T/C [25]: 98% | viability, T/C [26]: 108% | viability, T/C [27]: 113% | viability, T/C [28]: 109% | viability, T/C (second compound 1 µM, first compound 0.00316 µM): 106% | viability, T/C (second compound 1 µM, first compound 0.01 µM): 92.5% | viability, T/C [31]: 100% | viability, T/C [32]: 90.3% | viability, T/C [33]: 103% | viability, T/C [34]: 96.4% | viability, T/C (second compound 3.16 µM, first compound 0.00316 µM): 85.8% | viability, T/C (second compound 3.16 µM, first compound 0.01 µM): 106% | viability, T/C (second compound 3.16 µM, first compound 0.0316 µM): 86.8% | viability, T/C (second compound 3.16 µM, first compound 0.1 µM): 88.2% | viability, T/C (second compound 3.16 µM, first compound 0.316 µM): 111% | viability, T/C (second compound 3.16 µM, first compound 1 µM): 105% | viability, T/C (second compound 10 µM, first compound 0.00316 µM): 85.6% | viability, T/C (second compound 10 µM, first compound 0.01 µM): 80.7% | viability, T/C (second compound 10 µM, first compound 0.0316 µM): 84.4% | viability, T/C (second compound 10 µM, first compound 0.1 µM): 88% | viability, T/C (second compound 10 µM, first compound 0.316 µM): 87% | viability, T/C (second compound 10 µM, first compound 1 µM): 75.5%

Cn1nccc1Nc1nccc(-c2ccn(C(CO)c3ccc(Cl)c(F)c3)c(=O)c2)n1 (stereo unspecified) + COc1c(OCCCN2CCOCC2)ccc2c3n(c(=NC(=O)c4cnc(N)nc4)nc12)CCN3
pIC50 (second compound 0.00316 µM): < 5.00 | pIC50 (second compound 0.01 µM): < 5.00 | pIC50 (second compound 0.0316 µM): < 5.00 | pIC50 (second compound 0.1 µM): < 5.00 | pIC50 (second compound 0.316 µM): > 7.50 | pIC50 (second compound 1 µM): > 7.50 | viability, T/C [1]: 103% | viability, T/C [2]: 92.3% | viability, T/C [3]: 106% | viability, T/C [4]: 103% | viability, T/C [5]: 98% | viability, T/C [6]: 79.2% | viability, T/C [7]: 113% | viability, T/C [8]: 96.8% | viability, T/C [9]: 104% | viability, T/C [10]: 111% | viability, T/C [11]: 107% | viability, T/C [12]: 79.4% | viability, T/C [13]: 90.9% | viability, T/C [14]: 91.4% | viability, T/C [15]: 86.3% | viability, T/C [16]: 110% | viability, T/C [17]: 102% | viability, T/C [18]: 79.2% | viability, T/C [19]: 70.1% | viability, T/C [20]: 65.7% | viability, T/C [21]: 64.2% | viability, T/C [22]: 83% | viability, T/C [23]: 83.3% | viability, T/C [24]: 68.8% | viability, T/C [25]: 20.6% | viability, T/C [26]: 21.1% | viability, T/C [27]: 26.9% | viability, T/C [28]: 28.3% | viability, T/C [29]: 48.6% | viability, T/C [30]: 44.5% | viability, T/C [31]: 3.68% | viability, T/C [32]: 3.03% | viability, T/C [33]: 3.39% | viability, T/C [34]: 3.34% | viability, T/C [35]: 8.78% | viability, T/C [36]: 9.04%

From PubChem BioAssay AID1963974 (Molecular Pharmacology Branch, DTP, NCI, 2024)
